Assay results from patent US9487555B2, “Prodrug of an ice inhibitor” (VERTEX PHARMACEUTICALS INCORPORATED, priority 2000, dated 2016).

Assay: Oral pharmacokinetic studies in rats (quantitation of ICE inhibitor in rat plasma by HPLC/MS/MS)
Format: in vivo, Male Sprague-Dawley rats
Details: for AUC: male Sprague-Dawley rats, oral 50 mg/kg in 100% propylene glycol, plasma, noncompartmental; for Bioavailability (in words): amount of ICE inhibitor in rat plasma after oral administration, comparison in words
Procedure: Applicants studied a number of prodrug ICE inhibitors, including examples listed in the aforementioned WO 99/47545. Bioavailability was determined by quantitating the amount of ICE inhibitor in rat plasma after oral administration, as described below.
Male Sprague-Dawley rats (Harlan, Indianapolis, Ind., 300-350 g) were anesthetized by an intramuscular injection of ketamine/rompun mixture. A PE-50 cannula was inserted in the right carotid artery for arterial blood sampling. The rats were allowed to recover from surgery overnight (16 hours) prior to being used in the study. Test compounds were administered orally at 50 mg/kg 100% propylene glycol (PG) at a dose volume of 10 mL/kg. Blood samples (˜0.30 mL) were removed at 0.25, 0.50, 1.0, 1.5, 2, 3, 4, 6, and 8 hours post-dose, plasma separated by centrifugation and stored at −80° C. pending analysis. Quantification of the plasma samples was conducted using a gradient HPLC/MS/MS similar to the one detailed below: […]
HPLC/MS/MS Method for the Quantitation of ICE Inhibitors in Rat Plasma
1. 100 μl of plasma are aliquotted into Ependorf centrifuge vials.
2. An equal volume of acetonitrile is added to the plasma to precipitate plasma proteins.
3. Samples are vortexed for 2 minutes, and centrifuged at 14,000 rpms for 3 minutes.
4. 100 μl of the supernatant is loaded into 12 mm HPLC liquid sampler vials.
5. A 20 μl addition of […] standard is added to the 100 μl aliquot to monitor variation in instrumental response.
6. 10 μl of sample is injected for analysis via the mass spectrometer.
HPLC Instrumental Parameters
• HPLC: Hewlett Packard HP1100 Binary Solvent Delivery System. HPLC Gradient Conditions • A=H2O 0.2% Formic Acid • B=Acetonitrile 0.2% Formic Acid Mobile Phase
• HPLC Analytical Column: Keystone Phenyl-1 Hypersil 2.0×100 mm, 5μ 120 Å pore pore size, P/N# 105-36-2. • Injection Volume: 10 μl • Flow Rate: 0.20 mL/min. Mass Spectrometry Instrumental Parameters • Instrument: Micromass Quattro Ultima, Tandem Mass Spectrometer • Ionization Technique: Orthogonal spray (ESI) • Polarity: Positive • Dwell Time: 300 msec • Pause Time: 5 msec • Scan time: 0.9 sec • Scan Mode: MRM (Multiple Reaction Monitoring) • Ions/Transitions: For compound I-A m/z509.1-243.1 • For compound II m/z481.1-215.1 Pharmacokinetic Parameters
Pharmacokinetic analysis of these plasma concentration data was conducted using noncompartmental methods. The area under the curve (AUC(0-t)) was estimated from time zero to the last measured time point using the linear trapezoidal rule. The rate of elimination (ke) was estimated by log-linear regression from the terminal phase of the plasma concentration-time curves. Area under the tail of the curve was estimated as the ratio of the last measured concentration to ke. The area under the curve from time zero to infinity (AUC(0-∞)) was obtained by addition of the area under the tail to AUC(0-t). Elimination half-life was estimated as 0.693/ke. The observed values for the peak plasma concentration (Cmax) were recorded.

| SMILES | AUC [μgXh/mL] | Bioavailability (in words) |
| --- | --- | --- |
| CCO[C@@H]1OC(=O)C[C@@H]1NC(=O)[C@@H]1CCCN1C(=O)[C@H](C)NC(=O)c1ccc(N)c(Cl)c1 [Compound A, reference compound] | 2.18 |  |
| CCOC1OC(=O)C[C@@H]1NC(=O)[C@@H]1CCCN1C(=O)[C@@H](NC(=O)c1nccc2ccccc12)C(C)(C)C (some centres unmarked) [Compound B, reference compound] | 1.35 |  |
| CCO[C@@H]1OC(=O)C[C@@H]1NC(=O)[C@@H]1CCCN1C(=O)[C@@H](NC(=O)c1ccc(N)c(Cl)c1)C(C)(C)C [Compound I] | 11.7 | unexpectedly improved bioavailability |
| CC(C)(C)C(NC(=O)c1ccc(N)c(Cl)c1)C(=O)N1CCCC1C(=O)NC(C=O)CC(=O)O (centres unmarked) [II] |  | poor bioavailability |
